Test results published in paper PMC8580066 (2021).

Experiments:
[1] = tested on: c-Myc (DNA, G4) TGAGGGTGGGTAGGGTGGGTAA; test: thiazole orange displacement (TO-FID); details: K+ 100 mM; 10 mM Tris-HCl, pH 7.3; thiazole orange 2 μM displaced; DNA 1 μM; helicene 0-20 μM
[2] = tested on: c-Myc (DNA, G4) TGAGGGTGGGTAGGGTGGGTAA; test: fluorescence titration, simple binding model; details: K+ 100 mM, 10 mM lithium cacodylate, pH 7.3, stoichiometry fixed, equivalent stereoisomers, per site
[3] = tested on: c-Myc (DNA, G4) TGAGGGTGGGTAGGGTGGGTAA; test: fluorescence titration, competitive binding model; details: K+ 100 mM, 10 mM lithium cacodylate, pH 7.3, 32% and 96% ee samples, helicene 6 μM, per site
[4] = tested on: BCL2 (BCL2Mid) (DNA, G4) GGGCGCGGGAGGAATTGGGCGGG; test: fluorescence titration, competitive binding model; details: K+ 100 mM, 10 mM lithium cacodylate, pH 7.3, 32% and 96% ee samples, helicene 6 μM, per site
[5] = tested on: HTG4 (DNA, G4) AGGGTTAGGGTTAGGGTTAGGG; test: fluorescence titration, competitive binding model; details: K+ 100 mM, 10 mM lithium cacodylate, pH 7.3, 32% and 96% ee samples, helicene 6 μM, per site

c1ccc2c3c(ccc2c1)N(CCN1CCOCC1)c1cccc2c1c-3c1c3ccccc3ccc1[n+]2CCN1CCOCC1
DC50 [1]: 6.0 µM | Kd [2]: 3.8 µM

OCCN1c2ccc3ccccc3c2-c2c3c1cccc3[n+](CCO)c1ccc3ccccc3c21
DC50 [1]: 4.4 µM | Kd [2]: 4.7 µM | Kd ([3]; KM from simultaneous fit of 0%): 3.8 µM | Kd ([3]; KP from simultaneous fit of 0%): 4.7 µM | Kd ([4]; KM from simultaneous fit of 0%): 5.1 µM | Kd ([4]; KP from simultaneous fit of 0%): 7.5 µM | Kd ([5]; KM from simultaneous fit of 0%): 6.2 µM | Kd ([5]; KP from simultaneous fit of 0%): 7.5 µM

CCCN1c2ccc3ccccc3c2-c2c3c1cccc3[n+](CCC)c1ccc3ccccc3c21
DC50 [1]: 3.8 µM | Kd ([2]; helicene 4 μM constant): 0.7 µM
